This is an account of results in patent US6136815A, “Antiviral 2,4-pyrimidinedione derivatives and process for the preparation thereof” (Korea Research Inst. of Chem. Tech., priority 1996, dated 2000).

Structures are written as SMILES. In brackets after ≈: the same amount, converted by molar mass. Where two headings read alike, the source gives them in different places. Some results are limits rather than exact numbers.

The subject of one data set is HIV-1. The data set can be described thus: in vitro anti-HIV-1 assay: inhibition of the virus-induced cytopathic effect in MT-4 cells (MTT). The format is cell-based. To be noted: for S. I. (CD50 /ED50): Selectivity index = (CD50 /ED50). The protocol:
The in vitro anti-HIV-1 assays were based on the inhibition of the virus-induced cytopathic effect in MT-4 cells as described in J. Med. Chem, 34, 349 (1991).
First, MT-4 cells were suspended in a culture medium at a concentration of 1×10^4 cells/ml and infected with 500 TCID50 (50% cell culture infective dose)/well of HIV-1. Immediately after the virus infection, 100 μl of the cell suspension was brought into each well of a flat-bottomed microtiter tray containing various concentrations of the test compounds(1) to (21). After incubating for 4 or 5 days at 37° C., the number of viable cells was determined by the 3-(4,5-dimethylthiazol-2-yl)-2,5-diphenyltetrazolium bromide (MTT) method, as disclosed in J. Virol. Methods, 20, 309 (1988).
For orientation: Damage to the host cells serves as the signal in cytopathic effect assays.

The nature of data set [1]: cytotoxicity: viability of mock-infected host (MT-4) cells (MTT). The format is cell-based. To be noted: human, Cytotoxic concentration that causes death of MT4 cells by 50%, MTT method, read-out: CD50 (the source's name). How it is done: The cytotoxicity of the compounds of the present invention was assessed in parallel with their antiviral activity. It was based on the viability of mock-infected host cells as determined by the MTT methods (see J. Virol. Methods, 20, 309 (1988)). AZT was employed as a comparative compound.
Background: Tetrazolium dyes change colour on reduction, which living cells bring about.

Where [2] appears, read: Human immunodeficiency virus 1, MT4, read-out: ED50.
[3] abbreviates: Human immunodeficiency virus 1, MT4, Effective concentration for the inhibition of the proliferation of HIV by 50%, HIV-1-infected MT-4 cells, 4 or 5 days at 37° C., MTT method, read-out: ED50 (the source's name).

For `Cc1cn([C@H]2C[C@H](N=[N+]=[N-])[C@@H](CO)O2)c(=O)[nH]c1=O` [AZT, 3'-azido-3'-deoxythymidine, reference compound], the EC50 with HIV-1 (setting [2]) worked out at 0.00116 µg/mL (≈ 0.00434 µM). The CC50 in data set [1] was 0.558 µg/mL (≈ 2.09 µM).

For `CCOCn1c(Oc2cc(C)cc(C)c2)c(CC)c(=O)[nH]c1=O` [Compound 1, 1-ethoxymethyl-5-ethyl-6-(3',5'-dimethylphenoxy)-2,4-pyrimidinedione], in the data set with HIV-1 (setting [3]), the EC50 was less than 0.001 µg/mL. Further, the “S. I. (CD50 /ED50)” value with HIV-1 was > 84,680. In addition, the CC50 in data set [1] came out at 84.7 µg/mL (≈ 266 µM).

For the molecule `CCOCn1c(Oc2cc(C)cc(C)c2)c(C(C)C)c(=O)[nH]c1=O` [Compound 2, 1-ethoxymethyl-5-isopropyl-6-(3',5'-dimethylphenoxy)-2,4-pyrimidinedione], the EC50 with HIV-1 (setting [3]) is less than 0.00256 µg/mL. The “S. I. (CD50 /ED50)” value with HIV-1 is given as > 8,425. The CC50 in data set [1] came out at 21.6 µg/mL (≈ 64.9 µM).

On to `CCOCn1c(Oc2ccccc2)c(CC)c(=O)[nH]c1=O` [Compound 3, 1-ethoxymethyl-5-ethyl-6-phenoxy-2,4-pyrimidinedione], for which the EC50 in the data set on HIV-1 (setting [3]) is less than 0.001 µg/mL. Besides, the “S. I. (CD50 /ED50)” value with HIV-1 is > 16,630. Further, the CC50 in data set [1] amounted to 16.6 µg/mL (≈ 57.3 µM).

In the case of `CCOCn1c(Oc2ccccc2)c(C(C)C)c(=O)[nH]c1=O` [Compound 4, 1-ethoxymethyl-5-isopropyl-6-phenoxy-2,4-pyrimidinedione], the EC50 in the data set with HIV-1 (setting [2]) was 0.018 µg/mL (≈ 0.0591 µM). Also, in the data set with HIV-1, the “S. I. (CD50 /ED50)” value is recorded as > 5,111. Further, the CC50 in data set [1] was found to be 92 µg/mL (≈ 302 µM).

For the molecule `CCc1c(Oc2cc(C)cc(C)c2)n(COCc2ccccc2)c(=O)[nH]c1=O` [Compound 5, 1-benzyloxymethyl-5-ethyl-6-(3',5'-dimethylphenoxy)-2,4-pyrimidinedione], in the data set with HIV-1 (setting [3]), the EC50 is less than 0.00256 µg/mL. Further, the “S. I. (CD50 /ED50)” value in the data set on HIV-1 is recorded as > 11,585. In data set [1], the CC50 stood at 29.7 µg/mL (≈ 78 µM).

As for `Cc1cc(C)cc(Oc2c(C(C)C)c(=O)[nH]c(=O)n2COCc2ccccc2)c1` [Compound 6, 1-benzyloxymethyl-5-isopropyl-6-(3',5'-dimethylphenoxy)-2,4-pyrimidinedione], the EC50 in the data set with HIV-1 (setting [3]) is less than 0.00256 µg/mL. Moreover, the “S. I. (CD50 /ED50)” value in the data set with HIV-1 is listed as > 5,246. For the same molecule, the CC50 in data set [1] came to 13.4 µg/mL (≈ 34 µM).

In the case of `CC(C)c1c(Oc2ccccc2)n(COCc2ccccc2)c(=O)[nH]c1=O` [Compound 7, 1-benzyloxymethyl-5-isopropyl-6-phenoxy-2,4-pyrimidinedione], the EC50 in the data set on HIV-1 (setting [3]) is less than 0.001 µg/mL. Moreover, the “S. I. (CD50 /ED50)” value with HIV-1 is reported as > 10,210. In data set [1], the CC50 was 10.2 µg/mL (≈ 27.9 µM).

For the molecule `CCc1c(Oc2cc(C)cc(C)c2)n(COCCOC(C)=O)c(=O)[nH]c1=O` [Compound 8, 1-(2'-acetoxyethoxymethyl)-5-ethyl-6-(3',5'-dimethylphenoxy)-2,4-pyrimidinedione], the EC50 with HIV-1 (setting [3]) was less than 0.00256 µg/mL. In the data set on HIV-1, the “S. I. (CD50 /ED50)” value is listed as > 3,718. Besides, the CC50 in data set [1] is 9.52 µg/mL (≈ 25.3 µM).

On to `CCc1c(Oc2cc(C)cc(C)c2)n(COCCO)c(=O)[nH]c1=O` [Compound 9], for which the EC50 in the data set with HIV-1 (setting [3]) turned out to be 0.992 µg/mL (≈ 2.97 µM). In data set [1], the CC50 was found to be 35.1 µg/mL (≈ 105 µM).

Consider `CC(=O)OCCOCn1c(Oc2cc(C)cc(C)c2)c(C(C)C)c(=O)[nH]c1=O` [Compound 10, 1-(2'-acetoxyethoxymethyl)-5-isopropyl-6-(3',5'-dimethylphenoxy)-2,4-pyrimidinedione], for which the EC50 with HIV-1 (setting [3]) is 0.00351 µg/mL (≈ 0.00899 µM). Also, the CC50 in data set [1] stood at 119 µg/mL (≈ 304 µM).

Consider `Cc1cc(C)cc(Oc2c(C(C)C)c(=O)[nH]c(=O)n2COCCO)c1` [Compound 11, 1-(2'-hydroxyethoxymethyl)-5-isopropyl-6-(3',5'-dimethylphenoxy)-2,4-pyrimidinedione], for which, in the data set on HIV-1 (setting [3]), the EC50 was found to be 0.0107 µg/mL (≈ 0.0308 µM). Besides, the CC50 in data set [1] was determined as 129 µg/mL (≈ 370 µM).

Regarding `COCCOCn1c(Oc2cc(C)cc(C)c2)c(C(C)C)c(=O)[nH]c1=O` [Compound 12, 1-(2'-methoxyethoxymethyl)-5-isopropyl-6-(3',5'-dimethylphenoxy)-2,4-pyrimidinedione], the EC50 in the data set on HIV-1 (setting [3]) is 0.0106 µg/mL (≈ 0.0291 µM). Moreover, in data set [1], the CC50 was determined as 126 µg/mL (≈ 348 µM).

Regarding `CCOCn1c(C(=O)c2cc(C)cc(C)c2)c(CC)c(=O)[nH]c1=O` [Compound 13, 1-ethoxymethyl-5-ethyl-6-(3',5'-dimethylbenzoyl)-2,4-pyrimidinedione], in the data set on HIV-1 (setting [3]), the EC50 is less than 0.001 µg/mL. The “S. I. (CD50 /ED50)” value in the data set on HIV-1 was > 5,860. Moreover, the CC50 in data set [1] was 5.86 µg/mL (≈ 17.7 µM).

Turning to `CCOCn1c(C(=O)c2cc(C)cc(C)c2)c(C(C)C)c(=O)[nH]c1=O` [Compound 14, 1-ethoxymethyl-5-isopropyl-6-(3',5'-dimethylbenzoyl)-2,4-pyrimidinedione], in the data set with HIV-1 (setting [3]), the EC50 is less than 0.001 µg/mL. In the data set with HIV-1, the “S. I. (CD50 /ED50)” value is listed as > 15,330. Further, the CC50 in data set [1] was 15.3 µg/mL (≈ 44.5 µM).

Consider `CCOCn1c(C(=O)c2ccccc2)c(CC)c(=O)[nH]c1=O` [Compound 15, 1-ethoxymethyl-5-ethyl-6-benzoyl-2,4-pyrimidinedione], for which the EC50 with HIV-1 (setting [3]) stood at 0.043 µg/mL (≈ 0.142 µM). For the same molecule, the CC50 in data set [1] came out at 103 µg/mL (≈ 342 µM).

On to `CCOCn1c(C(=O)c2ccccc2)c(C(C)C)c(=O)[nH]c1=O` [Compound 16, 1-ethoxymethyl-5-isopropyl-6-benzoyl-2,4-pyrimidinedione], for which the EC50 with HIV-1 (setting [3]) stood at 0.0116 µg/mL (≈ 0.0367 µM). In data set [1], the CC50 was 88.7 µg/mL (≈ 280 µM).

`CCc1c(C(=O)c2cc(C)cc(C)c2)n(COCc2ccccc2)c(=O)[nH]c1=O` [Compound 17, 1-benzyloxymethyl-5-ethyl-6-(3',5'-dimethylbenzoyl)-2,4-pyrimidinedione]: the EC50 in the data set on HIV-1 (setting [2]) was less than 0.001 µg/mL. Further, the “S. I. (CD50 /ED50)” value with HIV-1 is > 10,550. Further, the CC50 in data set [1] stood at 1.05 µg/mL (≈ 2.69 µM).

As for `Cc1cc(C)cc(C(=O)c2c(C(C)C)c(=O)[nH]c(=O)n2COCc2ccccc2)c1` [Compound 18, 1-benzyloxymethyl-5-isopropyl-6-(3',5 '-dimethylbenzoyl)-2,4-pyrimidinedione], the EC50 in the data set on HIV-1 (setting [3]) is less than 0.001 µg/mL. Further, the “S. I. (CD50 /ED50)” value in the data set on HIV-1 is listed as > 11,920. Moreover, the CC50 in data set [1] stood at 11.9 µg/mL (≈ 29.3 µM).

On to `CC(C)c1c(C(=O)c2ccccc2)n(COCc2ccccc2)c(=O)[nH]c1=O` [Compound 19, 1-benzyloxymethyl-5-isopropyl-6-benzoyl-2,4-pyrimidinedione], for which the EC50 in the data set on HIV-1 (setting [2]) is less than 0.01 µg/mL. Moreover, the “S. I. (CD50 /ED50)” value in the data set with HIV-1 is given as > 15,450. The CC50 in data set [1] amounted to 15.4 µg/mL (≈ 40.8 µM).

Turning to `Cc1cc(C)cc(C(=O)c2c(C(C)C)c(=O)[nH]c(=O)n2COCCO)c1` [Compound 20], the EC50 with HIV-1 (setting [3]) amounted to 0.00367 µg/mL (≈ 0.0102 µM). Also, the CC50 in data set [1] was 51.7 µg/mL (≈ 143 µM).

For the molecule `COCCOCn1c(C(=O)c2cc(C)cc(C)c2)c(C(C)C)c(=O)[nH]c1=O` [Compound 21, 1-(2'-methoxyethoxymethyl)-5-isopropyl-6-(3',5'-dimethylbenzoyl)-2,4-pyrimidinedione], the EC50 in the data set with HIV-1 (setting [3]) turned out to be 0.0119 µg/mL (≈ 0.0318 µM). In addition, the CC50 in data set [1] came out at 121 µg/mL (≈ 324 µM).
